Measurements: US9155329B2, “Flavour compositions” (Givaudan Nederland Services B.V., priority 2005, dated 2015)
Read-outs that look alike come from different tables or passages of the source.

Experiments:
[1] = sample B: ice cream (8% vegetable fat) + strawberry flavour + 7 ppm substance, versus A without substance
Protocol: […] ice cream (8% vegetable fat) samples were prepared: • A: Ice cream (see table 2)+strawberry flavour • B: Ice cream (see table 2)+strawberry flavour+7 ppm N-gluconyl 1-amino-2-methyl-2-propanol (as prepared in Example 5)
The ice creams were tasted by a professional panel.

[2] = Protocol: Four yoghurt samples were prepared: • A: Yoghurt 0% fat+strawberry flavour+sucralose (25%) 300 ppm • B: Yoghurt 0% fat+strawberry flavour+sucralose (25%) 300 ppm+10 ppm N-gluconyl 2-amino-2-methyl-propanol (as prepared in Example 8) • C: Yoghurt 0% fat+strawberry flavour+4% sugar • D: Yoghurt 0% fat+strawberry flavour+4% sugar+10 ppm N-gluconyl 2-amino-2-methyl-propanol (as prepared in Example 8)
The yoghurts were tasted by a professional panel.

[3] = standard chicken soup dosed to 5 ppm substance, versus reference soup
Protocol: A standard chicken soup was prepared. The quantity was split in two. One part was kept as reference and the other part was dosed to contain 5 ppm of N-gluconyl 2-amino-2-methyl-propanol (as prepared in Example 8). The soups were tasted by a professional panel.

[4] = Aqueous NaCl solution tasting by a sensory panel; settings: solution B: 0.5% NaCl and 12 ppm substance; solution A (0.5% NaCl alone) described as salty
Protocol: Two aqueous solutions were prepared: • A. 0.5% NaCl • B. 0.5% NaCl and 12 ppm of N-lactoyl 2-amino-2-methyl-propanol (as prepared in Example 4)

[5] = Carbonated orange flavoured soft drink evaluation; settings: compared to original drink
Protocol: Two different soft drinks A and B were prepared by adding respectively 40 ppb and 4 ppm of N-lactoyl 2-amino-2-methyl-propanol (as prepared in Example 4) to a commercially available carbonated orange flavoured soft drink.

In the case of `CC(C)(O)CNC(=O)[C@H](O)[C@@H](O)[C@H](O)[C@H](O)CO` [N-gluconyl 1-amino-2-methyl-2-propanol], the taste description [1] is reported as “more round and natural taste, very clear sweet enhancement and increased creaminess”.

In the case of `CC(C)(CO)NC(=O)[C@H](O)[C@@H](O)[C@H](O)[C@H](O)CO` [N-gluconyl 2-amino-2-methyl-propanol, N-gluconyl 2-amino-2-methylpropanol], the taste description ([2]; sample B: yoghurt 0% fat + strawberry flavour + sucralose (25%) 300 ppm + 10 ppm substance, compared to A without substance) is reported as “fuller more round and natural taste, more sugar sweetness, significantly less bitter metallic aftertaste compared to A”, the taste description ([2]; sample D: yoghurt 0% fat + strawberry flavour + 4% sugar + 10 ppm substance, compared to C without substance) is reported as “fuller more round and natural taste, more intense sweet compared to C” and the taste description [3] is reported as “more tasteful, more complete, more body, more fatty”.

In the case of `CC(O)C(=O)NC(C)(C)CO` (stereo not shown) [N-lactoyl 2-amino-2-methyl-propanol, N-lactoyl 2-amino-2-methylpropanol], the taste description [4] is reported as ““high impact”, “bouillon”, “meaty”, “salty”, “umami” and “salivating””, the taste description ([5]; sample A: 40 ppb substance in commercial carbonated orange flavoured soft drink) is reported as “more natural, with a more juicy character than the original” and the taste description ([5]; sample B: 4 ppm substance in commercial carbonated orange flavoured soft drink) is reported as “tingling character typical of the flavour modulating substances of the present invention, which was judged as very pleasant and particularly well suited for the orange flavour”.
